In this test the target is Human TRPA1 (Homo sapiens, UniProt O75762). The test can be described thus: Assay 1: In vitro cellular testing of TRPA1 modulation (CHO-TREx, Fluo-3 calcium fluorescence, AITC agonist). The class given is cell-based. Set-up: expressed in transfected cells; host or cells: CHO-TREx cells (Invitrogen), vector pcDNA4/TO. Conditions: CHO-TREx cells expressing human TRPA1; Fluo-3 fluorescence (FLIPR/Tetra); agonist 15 μM allyl isothiocyanate (AITC); 30 minute antagonist incubation. The method in brief:
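Tetracycline-induced CHO-TREx cells stably expressing human TRPA1, loaded with 4 μM Fluo-3 AM, preincubated 30 min with compound (serial dilution typically from 10 μM, three-fold steps) in HEPES saline pH 7.4. Fluorescence change over 3 min after 15 μM AITC; IC50 from Hill fit versus no-antagonist and 10 μM ruthenium red controls.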
Human TRPA1, sequence (O75762 whole entry): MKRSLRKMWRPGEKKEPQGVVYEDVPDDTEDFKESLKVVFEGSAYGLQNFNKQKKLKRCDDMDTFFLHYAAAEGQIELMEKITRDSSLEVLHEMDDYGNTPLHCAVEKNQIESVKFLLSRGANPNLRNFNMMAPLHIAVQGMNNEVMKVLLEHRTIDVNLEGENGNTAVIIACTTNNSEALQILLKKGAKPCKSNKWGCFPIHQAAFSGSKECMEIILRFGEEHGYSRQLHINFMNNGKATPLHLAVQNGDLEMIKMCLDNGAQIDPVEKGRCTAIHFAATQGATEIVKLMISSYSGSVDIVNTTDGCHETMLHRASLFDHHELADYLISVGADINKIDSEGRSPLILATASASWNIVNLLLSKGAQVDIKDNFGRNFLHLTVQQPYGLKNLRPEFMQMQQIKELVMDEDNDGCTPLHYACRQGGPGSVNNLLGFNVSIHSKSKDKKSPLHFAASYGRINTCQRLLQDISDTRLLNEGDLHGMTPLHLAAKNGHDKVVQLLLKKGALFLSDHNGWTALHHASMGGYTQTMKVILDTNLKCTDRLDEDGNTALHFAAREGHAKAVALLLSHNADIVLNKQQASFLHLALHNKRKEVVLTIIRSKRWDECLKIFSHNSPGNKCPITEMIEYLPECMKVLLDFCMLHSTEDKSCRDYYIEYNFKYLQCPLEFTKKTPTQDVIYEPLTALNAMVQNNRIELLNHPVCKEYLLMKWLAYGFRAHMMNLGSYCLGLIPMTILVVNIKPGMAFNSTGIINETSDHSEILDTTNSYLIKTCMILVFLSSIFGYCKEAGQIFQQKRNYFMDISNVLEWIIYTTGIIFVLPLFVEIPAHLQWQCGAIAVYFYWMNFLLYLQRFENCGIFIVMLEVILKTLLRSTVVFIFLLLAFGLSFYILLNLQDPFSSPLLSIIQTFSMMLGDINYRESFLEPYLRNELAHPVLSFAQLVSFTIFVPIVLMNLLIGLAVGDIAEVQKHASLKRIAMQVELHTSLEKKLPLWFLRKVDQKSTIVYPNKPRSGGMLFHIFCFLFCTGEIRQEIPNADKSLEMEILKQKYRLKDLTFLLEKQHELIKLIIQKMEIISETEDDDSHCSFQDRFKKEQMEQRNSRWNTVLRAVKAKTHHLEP
Consider `CC(C)COc1nc(CNC(=O)[C@@H]2CCCN2S(=O)(=O)c2ccc(Cl)s2)cc(-c2ccc(C(F)(F)F)cc2)n1` [Example 43, 1-(5-Chloro-thiophene-2-sulfonyl)-pyrrolidine-2S-carboxylic acid [2-isobutoxy-6-(4-trifluoromethyl-phenyl)-pyrimidin-4-ylmethyl]-amide], for which the IC50 turned out to be 4 nM.

With `O=C(NCc1nccc(-c2ccc(C(F)(F)F)cc2)n1)[C@@H]1CCCN1S(=O)(=O)c1ccc(Cl)s1` [Example 186], the IC50 was 227 nM.

In the case of `CC(Nc1cc(CNC(=O)[C@@H]2CCCN2S(=O)(=O)c2ccc(F)cc2)cc(-c2ccc(C(F)(F)F)cc2)n1)c1ccccc1` (stereo partly drawn) [Example 413, 1-[(4-Fluorophenyl)sulfonyl]-N-({2-[(1-phenylethyl)amino]-6-[4-(trifluoromethyl)phenyl]pyridin-4-yl}methyl)-L-prolinamide], the IC50 worked out at 269 nM.

Turning to `CC(Nc1cc(CNC(=O)[C@@H]2CCCN2S(=O)(=O)c2ccc(F)cc2)cc(-c2ccc(C(F)(F)F)cc2)n1)c1ccncc1` (stereo partly drawn) [Example 402, 1-[(4-Fluorophenyl)sulfonyl]-N-({2-[(1-pyridin-4-ylethyl)amino]-6-[4-(trifluoromethyl)phenyl]pyridin-4-yl}methyl)-L-prolinamide], the IC50 was determined as 594 nM.

Consider `CC(C)CN1CCN(c2cc(CNC(=O)[C@@H]3CC(F)(F)CN3S(=O)(=O)c3ccc(Cl)s3)cc(-c3ccc(C(F)(F)F)cc3)n2)CC1` [Example 383, 1-[(5-Chlorothiophen-2-yl)sulfonyl]-4,4-difluoro-N-({2-[4-(2-methylpropyl)piperazin-1-yl]-6-[4-(trifluoromethyl)phenyl]pyridin-4-yl}methyl)-L-prolinamide], for which the half-inhibitory concentration (IC50) came to 488 nM.

Consider `O=C(NCc1cc(-c2ccc(C(F)(F)F)cc2)nc(-c2ccncc2)n1)[C@@H]1CCCN1S(=O)(=O)c1ccc(F)cc1` [Example 7, 1-(4-Fluoro-benzenesulfonyl)-pyrrolidine-2S-carboxylic acid [2-pyridin-4-yl-6-(4-trifluoromethyl-phenyl)-pyrimidin-4-ylmethyl]-amide], for which the IC50 was 229 nM.

On to `O=C(NCc1cc(-c2ccc(C(F)(F)F)cc2)nc(OCCN2CCCCC2)n1)[C@@H]1CCCN1S(=O)(=O)c1ccc(Cl)s1` [Example 63, 1-(5-Chloro-thiophene-2-sulfonyl)-pyrrolidine-2S-carboxylic acid [2-(2-piperidin-1-yl-ethoxy)-6-(4-trifluoromethyl-phenyl)-pyrimidin-4-ylmethyl]-amide], for which the IC50 came out at 78 nM.

`CN(C)c1nc(CNC(=O)[C@@H]2CCCN2S(=O)(=O)c2ccc(Cl)s2)cc(-c2ccc(C(F)(F)F)cc2)n1` [Example 29, 1-(5-Chloro-thiophene-2-sulfonyl)-pyrrolidine-2S-carboxylic acid [2-dimethylamino-6-(4-trifluoromethyl-phenyl)-pyrimidin-4-ylmethyl]-amide]: the IC50 came to 12 nM.

As to `O=C(NCc1cccc(-c2ccc(N3CCOCC3)cc2)c1)[C@@H]1CCCN1S(=O)(=O)c1ccc(F)cc1` [Example 94, 1-(4-Fluorobenzenesulfonyl)-pyrrolidine-2S-carboxylic acid (4′-morpholin-4-yl-biphenyl-3-ylmethyl)-amide], the IC50 was determined as 1630 nM.

On to `C[C@H]1CCCN1c1nc(CNC(=O)[C@@H]2CCCN2S(=O)(=O)c2ccc(Cl)s2)cc(-c2ccc(C(F)(F)F)cc2)n1` [Example 31, 1-(5-Chloro-thiophene-2-sulfonyl)-pyrrolidine-2S-carboxylic acid [2-(2S-methyl-pyrrolidin-1-yl)-6-(4-trifluoromethyl-phenyl)-pyrimidin-4-ylmethyl]-amide], for which the IC50 was determined as 9 nM.

As for `O=C(NCc1cc(-c2ccc(C(F)(F)F)cc2)nc(N2CCN(Cc3ccccn3)CC2)c1)[C@@H]1CCCN1S(=O)(=O)c1ccc(Cl)s1` [Example 339, 1-[(5-Chlorothiophen-2-yl)sulfonyl]-N-({2-[4-(pyridin-2-ylmethyl)piperazin-1-yl]-6-[4-(trifluoromethyl)phenyl]pyridin-4-yl}methyl)-L-prolinamide], the IC50 was found to be 251 nM.

Regarding `O=C(NCc1cc(-c2ccc(C(F)(F)F)cc2)nc(N2CCN(Cc3cccnc3)CC2)c1)[C@@H]1CC(F)(F)CN1S(=O)(=O)c1ccc(Cl)s1` [Example 366], the IC50 was found to be 1650 nM.

As to `O=C(NCc1cc(-c2ccc(C(F)(F)F)cc2)nc(N2CCN(Cc3ccccc3)CC2)c1)[C@@H]1C=CCN1S(=O)(=O)c1ccc(Cl)s1` [Example 368, (2S)—N-({2-(4-Benzylpiperazin-1-yl)-6-[4-(trifluoromethyl)phenyl]pyridin-4-yl}methyl)-1-[(5-chlorothiophen-2-yl)sulfonyl]-2,5-dihydro-1H-pyrrole-2-carboxamide], the IC50 worked out at 418 nM.

For the compound `O=C(NCc1cc(-c2ccc(C(F)(F)F)cc2)nc(-c2ccc(C(F)(F)F)cc2)n1)[C@@H]1CCCN1S(=O)(=O)c1ccc(F)cc1` [Example 4, 1-(4-Fluoro-benzenesulfonyl)-pyrrolidine-2S-carboxylic acid [2,6-bis-(4-trifluoromethyl-phenyl)-pyrimidin-4-ylmethyl]-amide], the concentration for half-maximal inhibition (IC50) was found to be 3 nM.

For the compound `O=C(NCc1cc(-c2ccc(C(F)(F)F)cc2)nc(OCC(F)(F)F)n1)[C@@H]1CC(F)(F)CN1S(=O)(=O)c1ccc(Cl)s1` [Example 61, 1-(5-Chloro-thiophene-2-sulfonyl)-4,4-difluoro-pyrrolidine-2S-carboxylic acid [2-(2,2,2-trifluoro-ethoxy)-6-(4-trifluoromethyl-phenyl)-pyrimidin-4-ylmethyl]-amide], the half-inhibitory concentration (IC50) stood at 105 nM.

For `Nc1nc(CNC(=O)[C@@H]2CCCN2S(=O)(=O)c2ccc(F)cc2)cc(-c2ccc(C(F)(F)F)cc2)n1` [Example 8, 1-(4-Fluoro-benzenesulfonyl)-pyrrolidine-2S-carboxylic acid [2-amino-6-(4-trifluoromethyl-phenyl)-pyrimidin-4-ylmethyl]-amide], the IC50 is 475 nM.

Take `CC(C)CN1CCN(c2cc(CNC(=O)[C@@H]3CCCN3S(=O)(=O)c3ccc(Cl)s3)cc(-c3ccc(C(F)(F)F)cc3)n2)CC1` [Example 369, 1-[(5-Chlorothiophen-2-yl)sulfonyl]-N-({2-[4-(2-methylpropyl)piperazin-1-yl]-6-[4-(trifluoromethyl)phenyl]pyridin-4-yl}methyl)-L-prolinamide]: the IC50 stood at 79 nM.

As to `O=C(NCc1cc(-c2ccc(C(F)(F)F)cc2)nc(N2CCN(Cc3ccccn3)CC2)c1)[C@@H]1C=CCN1S(=O)(=O)c1ccc(Cl)s1` [Example 354, (2S)-1-[(5-Chlorothiophen-2-yl)sulfonyl]-N-({2-[4-(pyridin-2-ylmethyl)piperazin-1-yl]-6-[4-(trifluoromethyl)phenyl]pyridin-4-yl}methyl)-2,5-dihydro-1H-pyrrole-2-carboxamide], the IC50 was 1070 nM.

Consider `CCOc1nc(CNC(=O)[C@@H]2CCCN2S(=O)(=O)c2ccc(Cl)s2)cc(-c2ccc(C(F)(F)F)cc2)n1` [Example 49, 1-(5-Chloro-thiophene-2-sulfonyl)-pyrrolidine-2S-carboxylic acid [2-ethoxy-6-(4-trifluoromethyl-phenyl)-pyrimidin-4-ylmethyl]-amide], for which the IC50 came to 15 nM.

Turning to `O=C(NCc1cc(-c2ccc(OC(F)(F)F)cc2)ccn1)[C@@H]1CC(F)(F)CN1S(=O)(=O)c1ccc(F)cc1` [Example 141, 4,4-Difluoro-1-(4-fluoro-benzenesulfonyl)-pyrrolidine-2S-carboxylic acid [4-(4-trifluoromethoxy-phenyl)-pyridin-2-ylmethyl]-amide], the IC50 worked out at 73 nM.

For the compound `O=C(NCc1cc(-c2ccc(C(F)(F)F)cc2)ncn1)[C@@H]1CCCN1S(=O)(=O)c1ccc([N+](=O)[O-])cc1` [Example 163, 1-(4-Nitrobenzenesulfonyl)-pyrrolidine-2S-carboxylic acid [6-(4-trifluoromethylphenyl)-pyrimidin-4-ylmethyl]-amide], the IC50 came out at 14 nM.

As for `O=C(NCc1cc(NCc2ccccn2)nc(-c2ccc(C(F)(F)F)cc2)c1)[C@@H]1C=CCN1S(=O)(=O)c1ccc(F)cc1` [Example 380, (2S)-1-[(4-Fluorophenyl)sulfonyl]-N-({2-[(pyridin-2-ylmethyl)amino]-6-[4-(trifluoromethyl)phenyl]pyridin-4-yl}methyl)-2,5-dihydro-1H-pyrrole-2-carboxamide], the IC50 was 523 nM.

As for `CC(C)N1CCN(c2nc(CNC(=O)[C@@H]3CCCN3S(=O)(=O)c3ccc(F)cc3)cc(-c3ccc(C(F)(F)F)cc3)n2)CC1` [Example 9, 1-(4-Fluoro-benzenesulfonyl)-pyrrolidine-2S-carboxylic acid [2-(4-isopropyl-piperazin-1-yl)-6-(4-trifluoromethyl-phenyl)-pyrimidin-4-ylmethyl]-amide], the IC50 was 542 nM.

As for `C[C@H](Nc1nc(CNC(=O)[C@@H]2CCCN2S(=O)(=O)c2ccc(Cl)s2)cc(-c2ccc(C(F)(F)F)cc2)n1)c1ccccn1` [Example 36, 1-(5-Chloro-thiophene-2-sulfonyl)-pyrrolidine-2S-carboxylic acid [2-(1-pyridin-2-yl-ethylamino)-6-(4-trifluoromethyl-phenyl)-pyrimidin-4S-ylmethyl]-amide], the IC50 worked out at 39 nM.

`O=C(NCc1ccnc(-c2ccc(C(F)(F)F)cc2)c1)[C@@H]1CC(F)(F)CN1S(=O)(=O)c1ccc(Cl)s1` [Example 126, 1-(5-Chlorothiophene-2-sulfonyl)-4,4-difluoropyrrolidine-2S-carboxylic acid [2-(4-trifluoromethylphenyl)-pyridin-4-ylmethyl]-amide]: the IC50 amounted to 46 nM.

As to `O=C(NCc1cccc(-c2ccc3ccccc3n2)c1)[C@@H]1CCCN1S(=O)(=O)c1ccc(F)cc1` [Example 107, 1-(4-Fluoro-benzenesulfonyl)-pyrrolidine-2S-carboxylic acid 3-quinolin-2-yl-benzylamide], the half-maximal inhibitory concentration (IC50) was found to be 518 nM.
